{"source": "patent US6905861B2", "about": "“D-aminoacylases, method for producing the same, and method for producing D-amino acids using the same” (Daicel Chemical Industries, Ltd., priority 1998, dated 2005)", "key": {"D-aminoacylase": {"test_system": "D-aminoacylase", "assay": "Substrate specificity of purified D-aminoacylase (TNBS method)", "assay_type": "biochemical, Hypomyces mycophilus IFO 6785", "method": "The enzyme activity was assayed by determining the amount of amino acid produced using the TNBS method and the HPLC method. In the TMBS method, 100 mM Na2B4O7 (0.5 ml) was added to a sample solution containing amino acid (0.5 ml), 20 μl of 110 mM TNBS (trinitrobenzenesulfonic acid) was then added, and the resulting mixture was quickly stirred. After 5 min, 100 mM NaH2PO4 containing 1.5 mM Na2SO3 (2 ml) was added to the reaction mixture to terminate the color reaction, and the absorbance at 420 nm was measured. HPLC was performed by subjecting a sample solution containing amino acid to high-performance liquid chromatography using an ODS column (column, Wakosil II 5C18 (4.6 dia.×250 mm) (Wako Pure Chemical); eluent, CH3CN/50 mM KH2PO4. H3PO4 (pH 2.5)=2:8; detection, A280 nm; and flow rate, 1.0 ml/min). The retention times were 3.5 min for D-tryptophan and 9.8 min for N-acetyl-D-tryptophan. Using D-tryptophan as the assay standard, one unit (or U) of the enzyme was defined as the amount of the enzyme required to produce 1 μmol of D-tryptophan at 30° C. for 1 min.\nSubstrate specificity of the enzyme was expressed as the percentage of the specific activity compared with that for N-acetyl-D-methionine taken as 100%. N-chloroacetyl-D-phenylalanine, N-acetyl-D-valine, N-acetyl-D-phenylalanine, N-acetyl-D-tryptophan, N-acetyl-D-leucine, N-acetyl-L-valine, N-acetyl-L-phenylalanine, N-acetyl-L-tryptophan, and N-acetyl-L-leucine substrates were used for the comparison. The enzyme reaction was performed in 50 mM Tris-HCl (pH 7.5) containing 1 µl of the enzyme solution and 20 mM of each substrate (total volume 1.0 ml) at 30° C. for 20 min, and terminated by adding 0.5 ml of a TCA reaction terminating solution according to Tsai et al. (consisting of 110 mM trichloroacetic acid, 220 mM sodium acetate, and 330 mM acetic acid). The enzyme activity was assayed by the TNBS method as described in Example 4(2)."}, "[1]": {"test_system": "D-aminoacylase (crude enzyme) of Pythium aphanidermaatum IFO 7030", "assay": "Crude enzyme activity for each N-Ac-D-amino acid substrate", "assay_type": "biochemical", "details": "Pythium aphanidermaatum IFO 7030 crude enzyme; 20 mM substrate, 1 mM CoCl2, 50 mM phosphate buffer pH 7.0", "method": "(§1) Auricularia auriculajudae IFO 5949, Pythium aphanidermaatum IFO 7030, and Menisporopsis novaezelandiae IFO 9179 were each inoculated into sterilized media (100 ml each) (Czapek Dox Broth for IFO 5949, YM1 medium for IFO 7030, and POTATO DEXTROSE BROTH for IFO 9179) in 500-ml Erlenmeyer flasks. The fungi were cultured on a rotary shaker at 210 rpm at 24° C. for 7 days and collected by centrifugation using a […] centrifuge with a RPR10-2 rotor at 8,000 rpm (12,500×g) for 20 min. […] Disrupted cells thus obtained were centrifuged using a […] centrifuge with a RPR20-2 rotor at 17,500 rpm (38,000×g) for 30 min at 4° C. to obtain the supernatant as the crude enzyme. […] Figures in the table denote the amount (mM) of D-amino acids produced from the corresponding N-acetyl-D-amino acids. The D-aminoacylase activity was detected in all the strains tested, producing D-amino acid from the corresponding N-acetyl-D-amino acid."}, "[2]": {"test_system": "D-aminoacylase (crude enzyme) of Auricularia auriculajudae IFO 5949", "assay": "Crude enzyme activity for each N-Ac-D-amino acid substrate", "assay_type": "biochemical", "details": "Auricularia auriculajudae IFO 5949 crude enzyme; 20 mM substrate, 1 mM CoCl2, 50 mM phosphate buffer pH 7.0", "method": "as §1"}, "[3]": {"test_system": "D-aminoacylase (crude enzyme) of Menisporopsis novaezelandiae IFO 9179", "assay": "Crude enzyme activity for each N-Ac-D-amino acid substrate", "assay_type": "biochemical", "details": "Menisporopsis novaezelandiae IFO 9179 crude enzyme; 20 mM substrate, 1 mM CoCl2, 50 mM phosphate buffer pH 7.0", "method": "as §1"}, "[4]": {"test_system": "Hypomyces rosellus IFO 6911 strain", "assay": "D-amino acid production from N-acetyl-D-amino acid by washed fungal cells", "assay_type": "cell-based", "details": "Hypomyces rosellus IFO 6911 cells; 0.1% substrate, Tris-HCl pH 7.5, 30° C., 24 hours", "method": "(§2) A platinum loopful of Hypomyces aurantius IFO 6847 strain, Hypomyces broomeanus IFO 9164 strain, Hypomyces rosellus IFO 6911 strain, Hypomyces chrysospermus IFO 6817 strain, Hypomyces sepulcralis IFO 9102 strain, Hypomyces subiculosus IFO 6892 strain, Hypomyces mycophilus ATCC 76474 or IFO 6785 strain, or Fusarium solani IFO 9974 or IFO 9975 strain was inoculated into 25 ml of YM medium (containing 0.3% yeast extract, 0.3% malt extract, 0.5% peptone, and 2.0% glucose, pH 6.0) in a 500-ml shouldered flask. The fungi were shake-cultured at 24° C. for 3 days. After culturing, a 5-ml aliquot of the culture medium was centrifuged in a refrigerated centrifuge to collect the fungal cells. The cells were washed with physiological saline solution (5 ml) and collected by centrifugation again. A reaction solution (containing 0.1% N-acetyl-D-amino acid shown in Table 1 below in Tris-HCl buffer, pH 7.5) was then added to the cells thus collected. The mixture was incubated in a 5-ml test tube with shaking at 30° C. for 24 hours.\n(§3) D-Amino acid thus produced was determined by high-performance liquid chromatography (column, CROWNPAK CR (Daicel Chemical); column temperature, 26° C.; cooled in ice for only valine; mobile phase, HClO4 aqueous solution, pH 2.0; flow rate, 1 ml/min; and detection, 200 nm)."}, "[5]": {"test_system": "Hypomyces aurantius IFO 6847 strain", "assay": "D-amino acid production from N-acetyl-D-amino acid by washed fungal cells", "assay_type": "cell-based", "details": "Hypomyces aurantius IFO 6847 cells; 0.1% substrate, Tris-HCl pH 7.5, 30° C., 24 hours", "method": "as §2, §3"}, "[6]": {"test_system": "Hypomyces sepulcralis IFO 9102 strain", "assay": "D-amino acid production from N-acetyl-D-amino acid by washed fungal cells", "assay_type": "cell-based", "details": "Hypomyces sepulcralis IFO 9102 cells; 0.1% substrate, Tris-HCl pH 7.5, 30° C., 24 hours", "method": "as §2, §3"}, "[7]": {"test_system": "Hypomyces subiculosus IFO 6892 strain", "assay": "D-amino acid production from N-acetyl-D-amino acid by washed fungal cells", "assay_type": "cell-based", "details": "Hypomyces subiculosus IFO 6892 cells; 0.1% substrate, Tris-HCl pH 7.5, 30° C., 24 hours", "method": "as §2, §3"}, "[8]": {"test_system": "Hypomyces broomeanus IFO 9164 strain", "assay": "D-amino acid production from N-acetyl-D-amino acid by washed fungal cells", "assay_type": "cell-based", "details": "Hypomyces broomeanus IFO 9164 cells; 0.1% substrate, Tris-HCl pH 7.5, 30° C., 24 hours", "method": "as §2, §3"}, "[9]": {"test_system": "Hypomyces mycophilus IFO 6785 strain", "assay": "D-amino acid production from N-acetyl-D-amino acid by washed fungal cells", "assay_type": "cell-based", "details": "Hypomyces mycophilus IFO 6785 cells; 0.1% substrate, Tris-HCl pH 7.5, 30° C., 24 hours", "method": "as §2, §3"}, "Fusarium solani IFO 9974": {"test_system": "Fusarium solani IFO 9974", "assay": "D-amino acid production from N-acetyl-D-amino acid by washed fungal cells", "assay_type": "cell-based", "details": "Fusarium solani IFO 9974 cells; 0.1% substrate, Tris-HCl pH 7.5, 30° C., 24 hours", "method": "as §2, §3"}, "[10]": {"test_system": "Fusarium solani IFO 9975 strain", "assay": "D-amino acid production from N-acetyl-D-amino acid by washed fungal cells", "assay_type": "cell-based", "details": "Fusarium solani IFO 9975 cells; 0.1% substrate, Tris-HCl pH 7.5, 30° C., 24 hours", "method": "as §2, §3"}, "[11]": {"test_system": "Hypomyces mycophilus ATCC 76474", "assay": "D-amino acid production from N-acetyl-D-amino acid by washed fungal cells", "assay_type": "cell-based", "details": "Hypomyces mycophilus ATCC 76474 cells; 0.1% substrate, Tris-HCl pH 7.5, 30° C., 24 hours", "method": "as §2, §3"}, "[12]": {"test_system": "Hypomyces chrysospermus IFO 6817 strain", "assay": "D-amino acid production from N-acetyl-D-amino acid by washed fungal cells", "assay_type": "cell-based", "details": "Hypomyces chrysospermus IFO 6817 cells; 0.1% substrate, Tris-HCl pH 7.5, 30° C., 24 hours", "method": "as §2, §3"}}, "data": [{"smiles": "CSCC[C@@H](NC(C)=O)C(=O)O", "note": "[N-acetyl-D-methionine]", "values": [{"measurement": "percentage of the specific activity compared with that for N-acetyl-D-methionine taken as 100%, D-enantiomer", "setting": "D-aminoacylase; 20 mM substrate, 50 mM Tris-HCl pH 7.5, 30° C., 20 min", "result": 100, "unit": "%"}, {"measurement": "activity of the enzyme for the substrate (in words)", "setting": "D-aminoacylase; summary of Table 5", "result": "very active"}, {"measurement": "amount of D-amino acids produced from the corresponding N-acetyl-D-amino acids", "setting": "[1]", "result": 0.90, "unit": "mM"}, {"measurement": "amount of D-amino acids produced from the corresponding N-acetyl-D-amino acids", "setting": "[2]", "result": 2.45, "unit": "mM"}, {"measurement": "amount of D-amino acids produced from the corresponding N-acetyl-D-amino acids", "setting": "[3]", "result": 0.89, "unit": "mM"}, {"measurement": "D-amino acid produced from N-acetyl-D-amino acid", "setting": "[4]", "result": 0.14, "unit": "mg/mL"}, {"measurement": "D-amino acid produced from N-acetyl-D-amino acid", "setting": "[5]", "result": 0.02, "unit": "mg/mL"}, {"measurement": "D-amino acid produced from N-acetyl-D-amino acid", "setting": "[6]", "result": 0.24, "unit": "mg/mL"}, {"measurement": "D-amino acid produced from N-acetyl-D-amino acid", "setting": "[7]", "result": 0.03, "unit": "mg/mL"}, {"measurement": "D-amino acid produced from N-acetyl-D-amino acid", "setting": "[8]", "result": 0.01, "unit": "mg/mL"}, {"measurement": "D-amino acid produced from N-acetyl-D-amino acid", "setting": "[9]", "result": 0.71, "unit": "mg/mL"}, {"measurement": "D-amino acid produced from N-acetyl-D-amino acid", "setting": "Fusarium solani IFO 9974", "result": 0.04, "unit": "mg/mL"}, {"measurement": "D-amino acid produced from N-acetyl-D-amino acid", "setting": "[10]", "result": 0.02, "unit": "mg/mL"}, {"measurement": "D-amino acid produced from N-acetyl-D-amino acid", "setting": "[11]", "result": 0.10, "unit": "mg/mL"}, {"measurement": "D-amino acid produced from N-acetyl-D-amino acid", "setting": "[12]", "result": 0.12, "unit": "mg/mL"}]}]}
